In paper PMC12040169 (PLOS Biology, 2025):

Experiment: in vitro
Settings: human, hela cells, % viability

SMILES	viability at 28.5 h, 10 µM
CCNC(=O)C1(Cc2ccccc2-c2ccccc2)CCN(C(=O)c2ccccc2)CC1 [CBK285700]	109%
Cc1nc(CN2[C@H]3CCCCC(=O)N[C@@]3(C)C[C@H]2c2cccc(C(F)(F)F)c2)cs1 [CBK285701]	91.1%
CC(C)(Oc1ccc(F)cc1)C(=O)N1CCC(C(=O)NCCc2ccccc2)C1 (stereo not drawn) [CBK285702]	101%
O=C(C1CCN(S(=O)(=O)c2ccc(F)cc2)C1)N1CCN(C2CCCC2)CC1 (stereo not drawn) [CBK285703]	96.6%
Cc1nc2ccccc2c(=O)n1CCC(=O)N1CCc2sccc2C1c1ccco1 (stereo not drawn) [CBK285706]	94.3%
O=C(Nc1nc2c(s1)CCCCC2)C1CCN(S(=O)(=O)c2ccc(F)cc2)C1 (stereo not drawn) [CBK285708]	111%
Cn1c(-c2ccccc2)cnc1NC(=O)C1CCN(S(=O)(=O)c2ccc(F)cc2)C1 (stereo not drawn) [CBK285709]	95.6%
COc1ccc(C2(C(=O)Nc3ccc(-c4ccccc4OC)cc3)CCOCC2)cc1 [CBK285710]	89.5%
COc1ccccc1-c1ccc(NC(=O)CCn2cnc3ccccc3c2=O)cc1 [CBK285711]	95.2%
COc1cccc(C(NC(=O)C2COc3ccc(OC)cc3C2)c2ccccc2)c1 (stereo not drawn) [CBK285713]	97.7%
Cc1ccccc1-c1ccccc1CC1(C(=O)N(C)C)CCN(C(=O)CC(C)(C)C)CC1 [CBK285715]	95.1%
CCNC(=O)C1(Cc2ccccc2-c2ccccc2C)CCN(C(=O)c2ccccc2)CC1 [CBK285716]	96.6%
CCNC(=O)C1(Cc2ccccc2-c2ccccc2C)CCN(C(=O)C2CCCCC2)CC1 [CBK285717]	106%
CNC(=O)C1(Cc2cccc(-c3cccs3)c2)CCN(C(=O)c2ccccc2)CC1 [CBK285720]	88.3%
Cc1ccccc1-c1ccccc1CC1(C(N)=O)CCN(C(=O)c2ccccc2)CC1 [CBK285721]	89.9%
COc1cccc(C(=O)N2CCC(Cc3ccccc3-c3ccccc3C)(C(N)=O)CC2)c1 [CBK285722]	94.5%
Cc1ccccc1-c1ccccc1CC1(C(N)=O)CCN(C(=O)Cc2ccccc2)CC1 [CBK285724]	106%
Cc1ccccc1-c1ccccc1CC1(C(N)=O)CCN(C(=O)CCc2ccccc2)CC1 [CBK285725]	102%
COc1cccc(C(=O)N2CCC(Cc3ccccc3-c3ccccc3)(C(N)=O)CC2)c1 [CBK285729]	93.6%
Cc1cccc(CC(=O)N2CCC(Cc3ccccc3-c3ccccc3)(C(N)=O)CC2)c1 [CBK285731]	103%
CNC(=O)C1(Cc2cccc(-c3cccs3)c2)CCN(C(=O)COc2ccccc2)CC1 [CBK285732]	95.5%
O=C(Nc1cccc(-c2cccc(F)c2)c1)c1ccccc1Cn1cncn1 [CBK285735]	87.4%
COc1cccc(C(NC(=O)C2COc3c(cccc3OC)C2)c2ccccc2)c1 (stereo not drawn) [CBK285736]	94.7%
COc1ccc(C(NC(=O)c2ccc(N3C(=O)CCC3=O)cc2)c2ccccc2)cc1 (stereo not drawn) [CBK285737]	93%
COc1cccc(CC(=O)N2CCC(Cc3cccc(-c4cccs4)c3)(C(N)=O)CC2)c1 [CBK285738]	96.4%

SMILES	viability at 28.5 h, 10 µM
NC(=O)C1(Cc2cccc(-c3cccs3)c2)CCN(C(=O)COc2ccccc2)CC1 [CBK285741]	103%
CNC(=O)C1(Cc2cccc(-c3cccs3)c2)CCN(C(=O)Cc2ccccc2)CC1 [CBK285745]	93.3%
CNC(=O)C1(Cc2ccccc2-c2cccs2)CCN(C(=O)Cc2ccccc2)CC1 [CBK285746]	90.8%
COc1ccccc1-c1ccc(NC(=O)C2(c3cccc(F)c3)CCOCC2)cc1 [CBK285747]	103%
COc1ccc(C(NC(=O)c2ccc(C(C)N3CCOCC3)o2)c2ccccc2)cc1 (stereo not drawn) [CBK285748]	112%
CC(C)NC(=O)C1(Cc2ccc(-c3ccccc3)cc2)CCN(C(=O)C2CCC2)CC1 [CBK285750]	102%
CC(C)NC(=O)C1(Cc2ccc(-c3ccccc3)cc2)CCN(C(=O)C2CCCC2)CC1 [CBK285751]	101%
Cc1cccc(CC(=O)N2CCC(Cc3cccc(-c4cccs4)c3)(C(N)=O)CC2)c1 [CBK285752]	107%
O=C(Cn1cc(C(=O)NCc2ccccc2)ccc1=O)NC1(c2ccccc2)CCCC1 [CBK285753]	95.7%
Cc1cccc(-c2ccc(CC3(C(=O)NC(C)C)CCN(C(=O)C4CC4)CC3)cc2)c1 [CBK285757]	93.3%
Cc1cccc(-c2ccc(CC3(C(=O)NC(C)C)CCN(C(=O)C(C)(C)C)CC3)cc2)c1 [CBK285758]	96.2%
CNC(=O)C1(Cc2ccc(-c3ccccc3)cc2)CCN(C(=O)CC2CCCCC2)CC1 [CBK285763]	112%
CNC(=O)C1(Cc2ccc(-c3ccccc3)cc2)CCN(C(=O)Cc2ccccc2)CC1 [CBK285764]	103%
CNC(=O)C1(Cc2ccc(-c3ccccc3)cc2)CCN(C(=O)CCc2ccccc2)CC1 [CBK285765]	91.8%
CNC(=O)C1(Cc2ccc(-c3ccccc3)cc2)CCN(C(=O)COc2ccccc2)CC1 [CBK285766]	92.7%
CNC(=O)C1(Cc2ccc(-c3ccccc3)cc2)CCN(C(=O)Cc2ccccc2F)CC1 [CBK285768]	94.8%
COc1cccc(C(=O)N2CCC(Cc3ccc(-c4ccccc4)cc3)(C(N)=O)CC2)c1 [CBK285770]	103%
NC(=O)C1(Cc2ccc(-c3ccccc3)cc2)CCN(C(=O)Cc2ccccc2)CC1 [CBK285771]	115%
Cc1cccc(-c2ccc(CC3(C(N)=O)CCN(C(=O)c4ccccc4)CC3)cc2)c1 [CBK285778]	93.9%
Cc1cccc(-c2ccc(CC3(C(N)=O)CCN(C(=O)Cc4ccccc4)CC3)cc2)c1 [CBK285780]	101%
NC(=O)C1(Cc2cccc(-c3cccs3)c2)CCN(C(=O)CCc2ccccc2)CC1 [CBK285782]	91.3%
CNC(=O)C1(Cc2ccc(-c3ccccc3)cc2)CCN(C(=O)c2cccc(OC)c2)CC1 [CBK285788]	105%
Nc1ncc(-c2ccc(C(F)(F)F)cc2)c(C2CCCN(C(=O)c3ccccc3)C2)n1 (stereo not drawn) [CBK285790]	89.2%
Nc1ncc(-c2ccc(C(F)(F)F)cc2)c(C2CCCN(C(=O)C3CCCCC3)C2)n1 (stereo not drawn) [CBK285791]	98.9%
CCNC(=O)C1(Cc2ccc(-c3cccs3)cc2)CCN(C(=O)Cc2ccccc2)CC1 [CBK285795]	115%

SMILES	viability at 28.5 h, 10 µM
Cc1cccc(CC(=O)N2CCC(Cc3ccc(-c4cccc(C)c4)cc3)(C(N)=O)CC2)c1 [CBK285798]	104%
O=C(Cc1c[nH]c2ccccc12)N1CCCC1c1cccc(Cc2ccccc2F)n1 (stereo not drawn) [CBK285799]	89.7%
CCOc1ccc(C2CCCN2S(=O)(=O)c2c[nH]c(=O)[nH]c2=O)cc1 (stereo not drawn) [CBK285806]	92.6%
CCOc1ccccc1-c1ccccc1NC(=O)c1ccc2c(c1)ncn2C1CC1 [CBK285808]	84.3%
CCOCc1ccc(C(=O)N2CCNC(=O)C2Cc2ccc(-c3cccs3)cc2)cc1 (stereo not drawn) [CBK285811]	97.3%
CN1CCN(C(=O)c2n[nH]c3c2CCCC3)C(Cc2ccc(-c3cccs3)cc2)C1=O (stereo not drawn) [CBK285812]	101%
Cc1ccc2[nH]c(Cc3ccc(NC(=O)c4cccc5c(=O)cc(C)[nH]c45)cc3)nc2c1 [CBK285814]	99.5%
Cc1ccc2[nH]c(Cc3ccc(NC(=O)c4cc(=O)n(C)c5ccccc45)cc3)nc2c1 [CBK285815]	98.5%
Cn1c(=O)c(C(=O)Nc2ccc(OCc3ccccc3F)cc2)nc2ccccc21 [CBK285820]	103%
COc1ccc(-c2ccc(OC)cc2C(=O)Nc2ccc3c(c2)OCC(=O)N3)cc1 [CBK285821]	101%
Cc1ccc2[nH]c(Cc3ccc(NC(=O)CCC4C(=O)Nc5ccccc54)cc3)nc2c1 (stereo not drawn) [CBK285824]	91%
Cc1c(C(=O)Nc2cccc(-c3nc4ccccc4s3)c2)sc2nc[nH]c(=O)c12 [CBK285825]	80.5%
COc1cccc(C(=O)N2CCN(C)C(=O)C2Cc2ccccc2-c2ccccc2)c1OC (stereo not drawn) [CBK285828]	109%
COc1ccc(OC)c(C(=O)N2CCNC(=O)C2Cc2ccccc2-c2ccc(F)cc2)c1 (stereo not drawn) [CBK285829]	105%
Cn1nc(C(C)(C)C)cc1C(=O)N1CCNC(=O)C1Cc1ccccc1-c1ccc(F)cc1 (stereo not drawn) [CBK285830]	101%
O=C1NCCN(C(=O)COc2ccc(F)cc2F)C1Cc1ccccc1-c1cccnc1 (stereo not drawn) [CBK285832]	95.6%
Cc1ccc2[nH]c(-c3cccc(NC(=O)c4ccc(-n5cnnc5)cc4)c3)nc2c1 [CBK285839]	94.1%
COc1c(C)cccc1C(=O)N1CCCCC1c1ncc(C(=O)Nc2ccccc2)c(C)n1 (stereo not drawn) [CBK285841]	89.9%
CCN(Cc1ncc[nH]1)[C@H]1CCO[C@@H](c2ccccc2-c2ccc(OC)cc2)C1 [CBK285842]	104%
CCOc1ccccc1-c1ccccc1NC(=O)c1ccc(-n2nc(C)cc2C)cc1 [CBK285845]	54.1%
COC(C)(C)C(=O)N1CCCC(c2ccc(Cc3ccc(Cl)cc3)cn2)C1 (stereo not drawn) [CBK285846]	98.6%
COc1ccc(CCCC(=O)N2CCC(c3c(C(N)=O)sc4ccccc34)C2)cc1C (stereo not drawn) [CBK285848]	94%
COc1cccc(-c2ccc(NC(=O)c3ccc(Cn4cnnn4)cc3)cc2)c1 [CBK285850]	93.4%
CCN(Cc1nccn1CC)[C@H]1CCO[C@@H](c2ccccc2-c2ccc(OC)cc2)C1 [CBK285852]	101%
CCN(Cc1cnn(C)c1)[C@H]1CCO[C@@H](c2ccccc2-c2ccc(OC)cc2)C1 [CBK285854]	98%

Same assay, conditions: human, hela cells, % viability, bulk resorufin, single well

SMILES	viability at 28.5 h, 10 µM
O=C(CCC1C(=O)NC(=O)NC1=O)Nc1ccc(Oc2ccc(F)cc2)cc1 [CBK285712]	88%
Cc1cc2cc(NC(=O)CCC3C(=O)NC(=O)NC3=O)cc(Cl)c2o1 [CBK285826]	93%
CC1CCN(c2ccc(C(C)NC(=O)CCC3C(=O)NC(=O)NC3=O)cc2)CC1 (stereo not drawn) [CBK285849]	96.9%
